# Publication PMC6656724 (Communications Biology, 2019)
# Read-outs that look alike come from different tables or passages of the source.
# How the values were obtained:
# [1] = target: T1, Pseudomonas fluorescens KMO (PfKMO) (Pseudomonas fluorescens, UniProt Q84HF5, C252S/C461S); assay: biochemical
# T1 construct: made in house; host or cells: E. coli BL21 (DE3)
# Excerpt: (§1) A combination of ligand- and structural-based virtual screening approaches (see supporting information for details) was used to identify an initial library of >1000 compounds that may be suitable as potential KMO inhibitors. These compounds were screened for inhibition of Pseudomonas fluorescens KMO (PfKMO) and Homo sapiens KMO (HsKMO) using high-throughput assays by monitoring the time-dependent oxidation of NADPH at 340 nm[23].
# (§2) Small-molecule compounds were supplied by Biofocus (Charles River Laboratories International Inc., MA, USA), which were identified in silico as potential inhibitors (further details are described in the Supplementary Methods). Initial inhibition assays were performed against Pseudomonas fluorescens KMO (PfKMO) and Homo sapiens KMO (HsKMO) by monitoring the time-dependent absorbance change of NADPH at 340 nm. Purified KMO protein (200 nM) was incubated in 100 µL reaction buffer (20 mM potassium phosphate pH 8.0, 7 mM 2-mercaptoethanol) containing 100 μM NADPH, 100 μM L-Kyn and 20 μM potential inhibitors in 96-well plates. […] The inhibitors identified in the initial screens were validated and re-assayed individually in a 1 cm path-length quartz micro cuvette. […] Suppliers for target inhibitor compounds are listed in Supplementary Table 11.
# (§3) Supplementary Figure 1. Examples of inhibition data used to generate IC50 values for selected KMO inhibitors. Fixed concentration of L -KYN (200 µM) and NADPH (100µM) were added into reaction buffer (HsKMO: 20mM potassium phosphate pH 8.0, 7 mM 2-mercaptoethanol; PfKMO: 20 mM HEPES, 10mM sodium acetate, pH 7.5, 2mM DTT). The reaction was initiated by the addition of KMO enzyme (HsKMO: 0.5µM; PfKMO: 0.1 µM). KMO activity was measured in the presence of a range of inhibitor concentrations. […]
# (§4) 3.5 Steady-state enzymatic assays.
# (§5) Initial screening assays and determination of IC50 values for each potential inhibitor compound were carried out using either 0.1 µM PfKMO or 0.5 µM HsKMO at fixed […]
# (§6) (HsKMO: 20 mM potassium phosphate pH 8.0, 7 mM 2-mercaptoethanol; PfKMO:
# (§7) 20 mM HEPES, 10 mM sodium acetate, pH 7.5, 2 mM DTT). KMO activity was measured in the presence of a range of inhibitor concentrations by monitoring the […]
# consumption of NADPH at 340 nm upon addition of enzyme via a Cary 50 UV-Vis spectrophotometer (Agilent Technologies). Rates were determined from linear regression fits to the initial linear portion of the curves. All measurements were performed in triplicate. The IC50 values for inhibitors were obtained by plotting the percentage inhibition versus the inhibitor concentration and fitting to the Morrison equation16 (equation 1) using Origin 9.0 Software (OriginLab, Northampton, MA). […]
# [2] = target: T2, Homo sapiens KMO (HsKMO) (Homo sapiens, UniProt O15229); assay: KMO inhibition assay, NADPH oxidation at 340 nm (HsKMO); assay type: biochemical
# T2 construct: GST; made in house
# Excerpt: as §1, §2
# Supplementary Figure 1. Examples of inhibition data used to generate IC50 values for selected KMO inhibitors.
# as §3, with “NADPH” for “Supplementary Figure 1. Examples of inhibition data used to generate IC50 values for selected KMO inhibitors. Fixed concentration of L -KYN (200 µM) and NADPH”
# as §4, §5, §6, §7
# consumption of NADPH at 340 nm upon addition of enzyme via a Cary 50 UV-Vis spectrophotometer (Agilent Technologies). Rates were determined from linear regression fits to the initial linear portion of the curves. All measurements were performed in triplicate. The IC50 values for inhibitors were obtained by plotting the percentage inhibition versus the inhibitor concentration and fitting to the Morrison equation16 (equation 1) using Origin 9.0 Software (OriginLab, Northampton, MA).
# E + I + K!"" − E + I + K!"" ! − 4[E][I] where v0 is the enzyme activity without inhibitor, vi is the enzyme activity with ligand
# [3] = in vitro; assay type: in vitro ADME, canine; settings: dog; for Papp A→B at 1 h, 10 µM / Papp B→A at 1 h, 10 µM / recovery at 1 h, 10 µM: MDCK
# Procedure: (§8) internal standard at each timepoint. […]
# (§9) including an analytical internal standard.
# (§10) Apparent permeability (Papp) values were determined from the relationship: […]
# (§11) Where V is the volume of each Transwell compartment (apical 125 µL, basolateral 600 µL), and concentrations are the relative MS responses for compound (normalized to internal standard) in the donor chamber before incubation and acceptor chamber at the end of the incubation. Area = area of cells exposed for drug transfer (0.33 cm 2).
# (§12) Efflux ratios (Papp B>A / Papp A>B) were calculated for each compound from the […]
# (§13) MDR1-MDCK cell line has been engineered to overexpress the efflux transporter, MDR1 (P-glycoprotein), and a finding of good permeability B>A, but poor […]
# (§14) order to confirm the involvement of MDR1 in any efflux seen, an “ef fective efflux ratio” (EER) was calculated by comparing compound efflux ratios (ER) in the two cell types, i.e. EER = ER (MDR1-MDCK)/ ER (wild-type MDCK). This ratio illustrates the effect of the over-expressed MDR1 normalised for the background movement of compound through the wild-type cells.
# (§15) Lucifer Yellow (LY) was added to the apical buffer in all wells to assess viability of the cell layer. As LY cannot freely permeate lipophilic barriers, a high degree of LY […]
# (§16) validity of other wells on the plate.
# (§17) Compound recovery from the wells was determined from MS responses (normalized to internal standard) in donor and acceptor chambers at the end of incubation compared to response in the donor chamber pre-incubation.
# [4] = tested on: MDR1 (P-glycoprotein); assay: in vitro; assay type: in vitro ADME, canine; settings: dog
# Procedure: as §8, §9, §10, §11, §12, §13, §14, §15, §16, §17
# [5] = pH 7.4, Papp A>B n=1, wild type MDCK
# [6] = pH 7.4, Papp A>B n=2, wild type MDCK
# [7] = pH 7.4, Papp B>A n=1, wild type MDCK
# [8] = pH 7.4, Papp B>A n=2, wild type MDCK
# [9] = pH 7.4, wild type MDCK, read-out: Papp A>B Mean
# [10] = pH 7.4, wild type MDCK, read-out: Papp B>A Mean
# [11] = pH 7.4, wild type MDCK, read-out: Recovery A>B Mean
# [12] = pH 7.4, wild type MDCK, read-out: Recovery A>B n=1
# [13] = pH 7.4, wild type MDCK, read-out: Recovery A>B n=2
# [14] = pH 7.4, wild type MDCK, read-out: Recovery B>A Mean
# [15] = pH 7.4, wild type MDCK, read-out: Recovery B>A n=1
# [16] = pH 7.4, wild type MDCK, read-out: Recovery B>A n=2
# [17] = MDCK-MDR1, pH 7.4, MDR1 MDCK, read-out: Papp A>B Mean
# [18] = MDCK-MDR1, pH 7.4, MDR1 MDCK, read-out: Papp B>A Mean
# [19] = MDCK-MDR1, pH 7.4, MDR1 MDCK, read-out: Recovery A>B Mean
# [20] = MDCK-MDR1, pH 7.4, MDR1 MDCK, read-out: Recovery A>B n=1
# [21] = MDCK-MDR1, pH 7.4, MDR1 MDCK, read-out: Recovery A>B n=2
# [22] = MDCK-MDR1, pH 7.4, MDR1 MDCK, read-out: Recovery B>A Mean
# [23] = MDCK-MDR1, pH 7.4, MDR1 MDCK, read-out: Recovery B>A n=1
# [24] = MDCK-MDR1, pH 7.4, MDR1 MDCK, read-out: Recovery B>A n=2
# [25] = MDCK-MDR1, pH 7.4, Papp A>B n=1, MDR1 MDCK
# [26] = MDCK-MDR1, pH 7.4, Papp A>B n=2, MDR1 MDCK
# [27] = MDCK-MDR1, pH 7.4, Papp B>A n=1, MDR1 MDCK
# [28] = MDCK-MDR1, pH 7.4, Papp B>A n=2, MDR1 MDCK
# T1 sequence (Q84HF5 whole entry C252S/C461S): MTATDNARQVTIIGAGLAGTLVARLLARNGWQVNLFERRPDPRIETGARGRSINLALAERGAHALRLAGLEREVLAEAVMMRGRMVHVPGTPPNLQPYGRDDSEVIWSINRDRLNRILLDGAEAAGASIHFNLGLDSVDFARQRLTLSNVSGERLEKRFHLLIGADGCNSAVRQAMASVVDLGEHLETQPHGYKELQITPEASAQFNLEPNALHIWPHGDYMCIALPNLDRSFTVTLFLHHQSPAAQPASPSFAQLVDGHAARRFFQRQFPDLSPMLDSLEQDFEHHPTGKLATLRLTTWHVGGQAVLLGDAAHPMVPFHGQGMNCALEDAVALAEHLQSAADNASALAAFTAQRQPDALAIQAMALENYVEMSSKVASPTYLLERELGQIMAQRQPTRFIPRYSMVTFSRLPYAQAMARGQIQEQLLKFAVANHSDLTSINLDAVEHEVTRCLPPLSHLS
# T2 sequence (O15229 whole entry): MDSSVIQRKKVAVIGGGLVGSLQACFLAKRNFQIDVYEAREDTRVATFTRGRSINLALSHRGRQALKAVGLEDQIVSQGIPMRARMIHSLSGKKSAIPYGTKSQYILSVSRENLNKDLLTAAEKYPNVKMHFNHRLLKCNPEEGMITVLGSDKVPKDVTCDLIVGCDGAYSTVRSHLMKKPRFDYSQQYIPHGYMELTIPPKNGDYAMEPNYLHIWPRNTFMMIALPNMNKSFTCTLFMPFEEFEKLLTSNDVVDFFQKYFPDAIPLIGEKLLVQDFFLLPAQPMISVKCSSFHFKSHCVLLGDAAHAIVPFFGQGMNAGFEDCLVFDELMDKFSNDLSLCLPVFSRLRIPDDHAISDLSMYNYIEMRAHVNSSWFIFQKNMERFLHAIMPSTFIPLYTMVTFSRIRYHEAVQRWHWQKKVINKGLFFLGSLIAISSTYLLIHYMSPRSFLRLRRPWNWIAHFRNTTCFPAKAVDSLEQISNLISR
structure (smiles),measurement,setting,value
"O=C(O)c1ccc(-c2ccc(F)c(Cl)c2)o1 [compound 18, 5-(3-chloro-4-fluorophenyl) furan-2-carboxylic acid]",IC50,[1],2.4 ± 0.3 µM
same,IC50,[2],193 µM
"CC(C)NCC(O)COc1cccc2ccccc12 (stereo not shown) [Propranolol, reference compound]","Papp A→B at 1 h, 10 µM",[3]; [5],52 ×10⁻⁶ cm/s
same,"Papp A→B at 1 h, 10 µM",[3]; [6],57 ×10⁻⁶ cm/s
same,"Papp B→A at 1 h, 10 µM",[3]; [7],30 ×10⁻⁶ cm/s
same,"Papp B→A at 1 h, 10 µM",[3]; [8],31 ×10⁻⁶ cm/s
same,"Papp A→B at 1 h, 10 µM",[3]; [9],54.5 ×10⁻⁶ cm/s
same,"Papp B→A at 1 h, 10 µM",[3]; [10],30.5 ×10⁻⁶ cm/s
same,"recovery at 1 h, 10 µM",[3]; [11],91%
same,"recovery at 1 h, 10 µM",[3]; [12],88%
same,"recovery at 1 h, 10 µM",[3]; [13],94%
same,"recovery at 1 h, 10 µM",[3]; [14],80.5%
same,"recovery at 1 h, 10 µM",[3]; [15],77%
same,"recovery at 1 h, 10 µM",[3]; [16],84%
same,"efflux ratio at 1 h, 10 µM","[3]; pH 7.4, wild type MDCK, Papp B>A / Papp A>B",0.56
same,"Papp A→B at 1 h, 10 µM",[4]; [17],52.5 ×10⁻⁶ cm/s
same,"Papp B→A at 1 h, 10 µM",[4]; [18],38 ×10⁻⁶ cm/s
same,"recovery at 1 h, 10 µM",[4]; [19],92.5%
same,"recovery at 1 h, 10 µM",[4]; [20],97%
same,"recovery at 1 h, 10 µM",[4]; [21],88%
same,"recovery at 1 h, 10 µM",[4]; [22],80.5%
same,"recovery at 1 h, 10 µM",[4]; [23],83%
same,"recovery at 1 h, 10 µM",[4]; [24],78%
same,"Papp A→B at 1 h, 10 µM",[4]; [25],53 ×10⁻⁶ cm/s
same,"Papp A→B at 1 h, 10 µM",[4]; [26],52 ×10⁻⁶ cm/s
same,"Papp B→A at 1 h, 10 µM",[4]; [27],39 ×10⁻⁶ cm/s
same,"Papp B→A at 1 h, 10 µM",[4]; [28],37 ×10⁻⁶ cm/s
same,"efflux ratio at 1 h, 10 µM","[4]; pH 7.4, MDR1 MDCK, Papp B>A / Papp A>B",0.72
"CC(C)n1c(CCC(=O)O)ccc1-c1ccc(Cl)cc1 [compound 14, 3-[5-(4-chlorophenyl)-1-(methylethyl)pyrrol-2-yl]propanoic acid]",IC50,[2],38.8 µM
"O=C(Nc1ccccc1C(=O)O)c1ccc(-c2ccc(Cl)cc2Cl)o1 [compound 10, 2-(5-(2,4-dichlorophenyl)furan-2-carboxamido)benzoic acid]",IC50,[1],3 ± 0.1 µM
same,IC50,[2],1.6 µM
"O=C(O)c1ccc(-c2ccc(Br)c(Cl)c2)o1 [compound 19, 5-(4-bromo-3-chlorophenyl) furan-2-carboxylic acid]",IC50,[1],0.7 ± 0.01 µM
same,IC50,[2],54.2 µM
"O=C(O)c1ccc(-c2ccc(Cl)cc2Cl)o1 [compound 16, 5-(2,4-dichlorophenyl) furan-2-carboxylic acid]",IC50,[1],70.2 ± 2.8 µM
same,IC50,[2],207 µM
"O=C(O)c1ccc(-c2cccc(Cl)c2)o1 [compound 17, 5-(3-chlorophenyl) furan-2-carboxylic acid]",IC50,[1],15.9 ± 0.8 µM
same,IC50,[2],442 µM
"CC[C@]1(O)C[C@@H]2CN(CCc3c([nH]c4ccccc34)[C@@](C(=O)OC)(c3cc4c(cc3OC)N(C)[C@H]3[C@@](O)(C(=O)OC)[C@H](OC(C)=O)[C@]5(CC)C=CCN6CC[C@]43[C@@H]65)C2)C1 [Vinblastine, reference compound]","Papp A→B at 1 h, 10 µM",[3]; [5],< 1 ×10⁻⁶ cm/s
same,"Papp A→B at 1 h, 10 µM",[3]; [6],< 1 ×10⁻⁶ cm/s
same,"Papp B→A at 1 h, 10 µM",[3]; [7],3.6 ×10⁻⁶ cm/s
same,"Papp B→A at 1 h, 10 µM",[3]; [8],3.9 ×10⁻⁶ cm/s
same,"Papp A→B at 1 h, 10 µM",[3]; [9],< 1 ×10⁻⁶ cm/s
same,"Papp B→A at 1 h, 10 µM",[3]; [10],3.75 ×10⁻⁶ cm/s
same,"recovery at 1 h, 10 µM",[3]; [11],46.5%
same,"recovery at 1 h, 10 µM",[3]; [12],48%
same,"recovery at 1 h, 10 µM",[3]; [13],45%
same,"recovery at 1 h, 10 µM",[3]; [14],72.5%
same,"recovery at 1 h, 10 µM",[3]; [15],71%
same,"recovery at 1 h, 10 µM",[3]; [16],74%
same,"Papp A→B at 1 h, 10 µM",[4]; [17],< 1 ×10⁻⁶ cm/s
same,"Papp B→A at 1 h, 10 µM",[4]; [18],22 ×10⁻⁶ cm/s
same,"recovery at 1 h, 10 µM",[4]; [19],55%
same,"recovery at 1 h, 10 µM",[4]; [20],55%
same,"recovery at 1 h, 10 µM",[4]; [21],55%
same,"recovery at 1 h, 10 µM",[4]; [22],67.5%
same,"recovery at 1 h, 10 µM",[4]; [23],71%
same,"recovery at 1 h, 10 µM",[4]; [24],64%
same,"Papp A→B at 1 h, 10 µM",[4]; [25],< 1 ×10⁻⁶ cm/s
same,"Papp A→B at 1 h, 10 µM",[4]; [26],< 1 ×10⁻⁶ cm/s
same,"Papp B→A at 1 h, 10 µM",[4]; [27],24 ×10⁻⁶ cm/s
same,"Papp B→A at 1 h, 10 µM",[4]; [28],20 ×10⁻⁶ cm/s
